According to US11759412B2, “Personal care compositions with glutathione precursor comprising 4-substituted resorcinols and amino acids” (Conopco, Inc., priority 2016, dated 2023):
Blank lines part the entries; values can stand above or below the compound they belong to.

How the values were obtained:
Assay type in all cases: cell-based
Aged Human Keratinocytes = assay: Glutathione Assay (total glutathione, GSH-GSSG Glo, menadione challenge); conditions: for synergistic increase in GSH synthesis, combination with GAP amino acids vs either alone: resorcinol/test reagent combined with GAP, + menadione
Procedure: Aged Human Keratinocytes (Cascade Biologics, now ThermoFisher Scientific, Waltham, Mass.) were maintained in Epi Life® medium containing 60 uM calcium chloride and 1% Human Keratinocyte Growth Supplement (both media components from ThermoFisher Scientific) in a humidified incubator with an atmosphere containing 5% CO2 at 37° C. The medium was refreshed every 2-3 days. Subsequently, cells were trypsinized at 90% confluency and seeded at a density of 1×10^4 per well into 96-well plates with white wall and clear bottom. One or two days after seeding, cell medium was replaced with Hank's Balanced Salt Solution (HBSS), and keratinocytes were pre-treated with GAP (or 0.12-0.240 mM sodium hydroxide vehicle control, pH 7.5) alone or in combination with additional test reagents described above or L-cystine esters alone for 1-2 hours. The concentration of all amino acids constituting the GAP mixture used in this assay are designated in the data tables, and fully described in the abbreviations list below.
After one or two hours of pre-treatment with GAP or additional test reagents, alone or in combination, keratinocytes were then challenged with 25 uM menadione (Sigma-Aldrich), a known inducer of oxidative stress. After 18-20 hours, cells were harvested and analyzed for total glutathione levels using a commercially available kit (GSH-GSSG GLo Assay, Promega), a luminescence-based system for the detection and quantification of total glutathione in cultured cells. In summary, after cell treatment, the media was removed and replaced with a cell lysis reagent for 5 minutes at 20-25° C.; note, all remaining steps were also conducted at 20-25° C. Next, a luciferase generation reagent was added to each well and incubated for 30 minutes. Following this step, a luciferin detection reagent was added to each well and plates were incubated for 15 minutes. Finally, plates were then read for luminescence in a FlexStation 3 plate reader (Molecular Devices). Total glutathione levels were calculated after interpolation of glutathione concentrations from a standard curve. Experimental conditions were typically conducted in at least triplicate determinations. Statistical significance was calculated using 1-way ANOVA. Percent protection was calculated by using the calculated glutathione levels from each experiment in the following equation: […]

Human Keratinocytes [1] = assay: Reactive Oxygen Species (ROS) Assay (CellROX green, menadione); conditions: for synergistic decrease in ROS production, combination with GAP amino acids vs either alone: resorcinol/test reagent combined with GAP, + menadione
Procedure: Human Keratinocytes (Promocell, Heidelberg, Germany) were maintained in EpiLife® keratinocyte medium containing 60 uM calcium chloride and 1% Human Keratinocyte Growth Supplement (HKGS) in a humidified incubator with an atmosphere containing 5% CO2 at 37° C. The medium was refreshed every other day. Subsequently, cells were trypsinized at 90% confluency and seeded at a density of 1-2×10^4 per well into 96-well plates with black wall and clear bottom. On the second day after seeding, cell medium was replaced with Hank's Balanced Salt Solution (HBSS) with or without menadione (10-25 uM), GAP (typically at 49 uM pyroglutamic acid, 60 uM cystine, 194 uM glycine), GAP vehicle (0.2 mM NaOH, pH 7.5), above-described additional test reagents, or combinations of GAP with additional test reagents or L-cystine esters alone, and incubated for additional 18 hours. For ROS detection, CellROX green (Life Tech, Thermo Fisher Scientific, Rockford, USA) reagent was added into each well to a final concentration of 15-25 uM and incubated for additional 2-4 hours at 37° C. in a humidified incubator. The ROS fluorescence was detected using a Tecan microplate reader (Excitation/Emission=490/525). Relative ROS production was calculated with normalization based on the vehicle control treatment which was set to 100%. Where indicated, percent protection was calculated as a comparison to menadione alone treatment, using the measured relative fluorescent units in the following equation: […]
ROS levels were evaluated together with cell viability because it is possible to get a false negative for ROS if treatment is so toxic, that at the time of assay, cells are dead (and there are no longer any detectable ROS). Decrease in ROS levels is meaningful if cells are still viable.

Human Keratinocytes [2] = assay: Cell Viability Assay (CCK-8, menadione); conditions: for Cell viability (% of vehicle of control): Table 2H; for % Protection (improvement vs vehicle control + menadione), cell viability / Cell viability (% of control): Table 2D
Procedure: Human Keratinocytes (Promocell, Heidelberg, Germany) were maintained in EpiLife® keratinocyte medium containing 60 uM calcium chloride and 1% Human Keratinocyte Growth Supplement (HKGS). The medium was refreshed every other day. Subsequently, cells were trypsinized at 90% confluency and seeded at a density of 2×10^4 per well into 96-well transparent tissue culture plates. On the second day after seeding, cell medium was replaced with treatments as described above in ROS assay section. After 18 hours, […] (CCK-8) reagent (Dojindo, Kumamoto, Japan) was diluted 1:10 in HBSS and incubated with cells for 4 h at 37° C. in a humidified incubator. Optical absorption at 450 nm was measured using a Tecan Safire2 plate reader. Relative viability was calculated with normalization based on the vehicle control treatment, which was set to 100%.
Where indicated, percent protection was calculated as a comparison to menadione alone treatment, using the measured relative absorbance units in the following equation: […]

[3] = molecular target: T1, tyrosinase in Human primary melanocytes (Homo sapiens, UniProt P14679); assay: Tyrosinase Activity Assay (in situ, melanocyte lysate, DOPA/MBTH); conditions: Table 4, GAP where present: glutamine 32 uM, cystine 40 uM, glycine 129 uM, 72 hours
T1 construct: host or cells: Human primary melanocytes
T1 sequence (P14679 19-529): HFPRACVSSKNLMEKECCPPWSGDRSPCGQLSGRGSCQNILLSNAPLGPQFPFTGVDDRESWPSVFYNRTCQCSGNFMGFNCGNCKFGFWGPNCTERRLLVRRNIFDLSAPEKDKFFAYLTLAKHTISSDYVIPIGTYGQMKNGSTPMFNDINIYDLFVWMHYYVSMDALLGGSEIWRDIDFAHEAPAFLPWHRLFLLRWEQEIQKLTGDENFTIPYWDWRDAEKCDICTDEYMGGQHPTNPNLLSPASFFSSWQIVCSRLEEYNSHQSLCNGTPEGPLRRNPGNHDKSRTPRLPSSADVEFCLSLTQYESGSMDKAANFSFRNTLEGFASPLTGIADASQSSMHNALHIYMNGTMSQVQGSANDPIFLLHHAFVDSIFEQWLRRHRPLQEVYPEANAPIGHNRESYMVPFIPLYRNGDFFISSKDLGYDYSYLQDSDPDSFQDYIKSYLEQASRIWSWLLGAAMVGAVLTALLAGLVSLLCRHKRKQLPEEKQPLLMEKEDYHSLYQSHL
Procedure: Human primary melanocytes (Cascade Biologics, now ThermoFisher Scientific) were grown in melanocytes growth medium (MGM) with human melanocyte growth supplement (both media components from ThermoFisher Scientific). Melanocytes were seeded at 1×10^4 cells/well in a 96 wells plate and cultures left undisturbed for 24 hrs in a 5% CO2 humidified incubator at 37° C. At 24 hrs post-seeding, cells were treated with GAP amino acids (consisting of glutamine (32 uM), cystine (40 uM), glycine (129 uM)) alone or in combination with test reagents described above, and left undisturbed for another 72 hours. Subsequently, cell viability was assessed and the cells were then lysed and progressed for determination of in situ tyrosinase activity. Cultures were rinsed twice with 1× phosphate-buffered saline and lysed with 40 uL of 0.5% TritonX 100 for 1 hour on an ice bed. In situ tyrosinase activity was visualized by addition of 60 μl of 50 mM potassium phosphate buffer (pH 6.8) containing 2 mM DOPA (3,4 dihydroxy phenylalanine) and 4 mM MBTH reagent (3-Methyl-2-Benzothiazolinone hydrazone hydrochloride) for 1 hour at 37° C. The reaction was stopped by the addition of 100 uL of ice-cold 10% tricholoracetic acid and then centrifuged at approximately 300 g for 10 minutes at 4° C. The soluble supernatant was separated from the pellet and the optical density read in a TECAN plate-reader (540 nm filter). The spectrophotometric optical density at 540 nm for untreated cells (no active) is considered as 100% tyrosinase activity. Tyrosinase activity is expressed after correction for cell numbers (activity/viability) and represented as % control.

[4] = Table 1A, HR 20 uM where present, + menadione 25 uM

- inhibition at 5 µM ([3]; resorcinol (HR or ER) 5 uM): 67%
- inhibition at 10 µM ([3]; resorcinol (HR or ER) 10 uM): 68%
SMILES: CCc1ccc(O)cc1O [ER, 4-ethylresorcinol]
- % Protection (improvement vs. vehicle control + menadione) (Aged Human Keratinocytes; Table 2C, ER 40 uM + menadione): 0%
- Glutathione Synthesis, Mean (uM glutathione) (Aged Human Keratinocytes; Table 2C, ER 40 uM + menadione): 0.36 µM
- % Protection (improvement vs. vehicle control + menadione) (Aged Human Keratinocytes; Table 2C, ER 50 uM + menadione): −4%
- Glutathione Synthesis, Mean (uM glutathione) (Aged Human Keratinocytes; Table 2C, ER 50 uM + menadione): 0.25 µM
- % Protection (improvement vs. vehicle control + menadione) (Aged Human Keratinocytes; Table 2C, ER 60 uM + menadione): −1%
- Glutathione Synthesis, Mean (uM glutathione) (Aged Human Keratinocytes; Table 2C, ER 60 uM + menadione): 0.34 µM
- synergistic increase in GSH synthesis, combination with GAP amino acids vs either alone (Aged Human Keratinocytes): synergistic increase
- Mean ROS production (% of vehicle control) (Human Keratinocytes [1]; Table 2H, ER 10 uM + menadione): 287.5%
- Mean ROS production (% of vehicle control) (Human Keratinocytes [1]; Table 2H, ER 20 uM + menadione): 308.3%
- synergistic decrease in ROS production, combination with GAP amino acids vs either alone (Human Keratinocytes [1]): not observed
- Cell viability (% of vehicle of control) (Human Keratinocytes [2]; ER 10 uM + menadione): 36.6%
- Cell viability (% of vehicle of control) (Human Keratinocytes [2]; ER 20 uM + menadione): 39.8%

- Tyrosinase activity inhibition, Mean of % Inhibition ([3]; resorcinol (HR or ER) 5 uM): 63^1%
- Tyrosinase activity inhibition, Mean of % Inhibition ([3]; resorcinol (HR or ER) 10 uM): 71^1%
SMILES: CCCCCCc1ccc(O)cc1O [HR, 4-hexylresorcinol]
- % Protection (improvement vs. vehicle control + menadione) (Aged Human Keratinocytes; [4]): 22^1%
- Glutathione Synthesis, Mean (uM glutathione) (Aged Human Keratinocytes; [4]): 0.46^1 uM
- % Protection (improvement vs. vehicle control + menadione) (Aged Human Keratinocytes; Table 2A, HR 10 uM + menadione): 4%
- Glutathione Synthesis, Mean (uM glutathione) (Aged Human Keratinocytes; Table 2A, HR 10 uM + menadione): 0.24 µM
- % Protection (improvement vs. vehicle control + menadione) (Aged Human Keratinocytes; Table 2A, HR 20 uM + menadione): 5%
- Glutathione Synthesis, Mean (uM glutathione) (Aged Human Keratinocytes; Table 2A, HR 20 uM + menadione): 0.28 µM
- % Protection (improvement vs. vehicle control + menadione) (Aged Human Keratinocytes; Table 2A, HR 40 uM + menadione): 1%
- Glutathione Synthesis, Mean (uM glutathione) (Aged Human Keratinocytes; Table 2A, HR 40 uM + menadione): 0.19 µM
- % Protection (improvement vs. vehicle control + menadione) (Aged Human Keratinocytes; Table 2A, HR 60 uM + menadione): 0%
- Glutathione Synthesis, Mean (uM glutathione) (Aged Human Keratinocytes; Table 2A, HR 60 uM + menadione): 0.14 µM
- synergistic increase in GSH synthesis, combination with GAP amino acids vs either alone (Aged Human Keratinocytes): synergistic increase
- % protection (improvement vs vehicle control + menadione), ROS (Human Keratinocytes [1]; Table 2D, HR 10 uM + menadione): 69.6^3%
- Mean ROS production (% of vehicle control) (Human Keratinocytes [1]; Table 2D, HR 10 uM + menadione): 153.4^3%
- % protection (improvement vs vehicle control + menadione), ROS (Human Keratinocytes [1]; Table 2D, HR 20 uM + menadione): 76.49^3%
- Mean ROS production (% of vehicle control) (Human Keratinocytes [1]; Table 2D, HR 20 uM + menadione): 118.7^3%
- synergistic decrease in ROS production, combination with GAP amino acids vs either alone (Human Keratinocytes [1]): synergistic decrease
- % Protection (improvement vs vehicle control + menadione), cell viability (Human Keratinocytes [2]; HR 10 uM + menadione): 18.85^3%
- Cell viability (% of control) (Human Keratinocytes [2]; HR 10 uM + menadione): 65.1^3%
- % Protection (improvement vs vehicle control + menadione), cell viability (Human Keratinocytes [2]; HR 20 uM + menadione): −79.00%
- Cell viability (% of control) (Human Keratinocytes [2]; HR 20 uM + menadione): 11.0%
